Results as given in patent US11866430B2, “Naphthyridinone compounds useful as T cell activators” (priority 2018, dated 2024).
Where two headings read alike, the source gives them in different places.

How the values were obtained:
naïve human CD8 T cells [1] = test: CellTiter-Glo CD8 T Cell Proliferation Assay; format: cell-based; settings: Homo sapiens, T-cell
Description: Frozen naïve human CD8 T cells were thawed in RPMI+10% FBS, incubated for 2 h in 37° C., and counted. The 384-well tissue culture plate was coated overnight at 4° C. with 20 μl anti-human CD3 at 0.1 μg/mL in plain RPMI, which was removed off the plate before 20 k/40 μl CD8 T cells with 0.5 μg/mL soluble anti-human CD28 were added to each well. The compounds were echoed to the cell plate immediately after the cells were plated. After 72 h incubation at 37° C. incubator, 10 μl CellTiter-glo reagent (Promega catalog number G7570) was added to each well. The plate was vigorously shaken for 5 mins, incubated at room temperature for another 15 mins and read on Envision for CD8 T cell proliferation. In analysis, 0.1 μg/mL anti-CD3 and 0.5 μg/mL anti-CD28 stimulated CD8 T cell signal was background.

human DGKα [2] = biological target: T1, human DGKα (Homo sapiens (Human), UniProt P23743); test: biochemical
Method in brief: (§1)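 Enzymes were baculovirus/Sf9 full-length human DGKα or DGKζ with His tag. The substrate was PS/DAG in octyl glucoside micelles, in MOPS pH 7.5 buffer with NaCl, MgCl2, CaCl2 and DTT.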

[3] = test system: Jurkat AP1-luciferase Reporter; test: DGK AP1-Reporter Assay; format: cell-based
Description: The Jurkat AP1-luciferase Reporter was generated using the Cignal Lenti AP1 Reporter (luc) Kit from SABiosciences (CLS-011L).
The sample size was 30 nl per well; and one destination plate per source plate. The cell suspensions were prepared by transferring 40 mL cells (2×20 mL) to clean 50 mL conical tubes. The cells were concentrated by centrifugation (1200 rpm; 5 mins; ambient temperature). […] The cell plates were incubated for 20 minutes at 37° C., and 5% CO2.
During the incubation, anti-CD3 antibody (αCD3) solutions were prepared by mixing 3 μl αCD3 (1.3 mg/mL) with 10 mL medium [final conc=0.4 μg/mL]. Next, 1.5 μl αCD3 (1.3 mg/mL) was mixed with 0.5 mL medium [final conc=4 μg/mL]. After 20 minutes, 10 μl medium was added to all wells in column 1, wells A to M, and 10 μl αCD3 (4 μg/mL) per well was added in column 1, rows N to P for reference. Then using a multi-channel pipette, 10 μl αCD3 (0.4 μg/mL) per well was added. The αCD3 stimulated +/− compound-treated cells were incubated at 37° C., 5% CO2 for 6 hours.
During this incubation period. Steady-Glo (Promega E2520) reagent was slowly thawed on to ambient temperature. Next, 20 μl Steady-Glo reagent per well was added using a multi-drop Combi-dispenser. Bubbles were removed by centrifugation (2000 rpm, ambient temperature, 10 sees). The cells were incubated at room temperature for 5 minutes. Samples were characterized by measuring the Relative Light Units (RLU) with an using Envision Plate Reader Instrument on a luminescence protocol.

human DGKζ [4] = biological target: T2, human DGKζ (Homo sapiens (Human), UniProt Q13574); test: DGKζ assay (detergent/lipid micelle substrate); format: biochemical; settings: detergent/lipid micelle substrate; read-out: DGKζ IC50
Method in brief: as §1

[5] = test system: OT-1 antigen-specific CD8+ T cells with MC38 tumor cells; test: Murine Cytotoxic T Lymphocyte Assay (IFN-γ); format: cell-based, mouse
Excerpt: An antigen-specific cytolytic T-cell (CTL) assay was developed to evaluate functionally the ability of DGKα and DGKζ inhibitors to enhance effector T cell mediated tumor cell killing activity. CD8+ T-cells isolated from the OT-1 transgenic mouse recognize antigen presenting cells, MC38, that present the ovalbumin derived peptide […]. Recognition of the cognate antigen initiates the cytolytic activity of the OT-1 antigen-specific CD8+ T cells.
Functional CTL cells were generated as follows: OT-1 splenocytes from 8-12 week old mice were isolated and expanded in the presence of the […] peptide at 1 μg/mL and mIL2 at 10 U/mL. After three days, fresh media with mIL2 U/mL was added. On day 5 of the expansion, the CD8+ T cells were isolated and ready for use. Activated CTL cells may be stored frozen for 6 months. […] The cells were washed (3×) with fresh media to remove excess peptide. Finally, CTL cells that were pretreated with DGK inhibitors for 1 hour in a 96-well U bottom plate were combined with the antigen loaded MC38 tumor cells at a 1:10 ratio. The cells were then spun at 700 rpm for 5 min and placed in an incubator overnight at 37° C. After 24 hours, the supernatant was collected for analysis of IFN-γ cytokine levels by AlphaLisa purchased from Perkin Elmer.

human DGKα [6] = biological target: T1, human DGKα; test: DGKα LIPGLO assay (extruded liposome substrate); format: biochemical
Method in brief: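 Human full-length DGKα, His-tagged and produced in Sf9 cells, assayed at 20 nM (4× stock) on extruded liposomes of PS, 0.25 mM DAG and 2.75 mM PC, preincubated 10 min. Reaction started with 300 μM ATP (stock) and ran 1 h in MOPS pH 7.5/MgCl2/CaCl2/DTT buffer.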

naïve human CD8 T cells [7] = test: cells; settings: Homo sapiens, T-cell, read-out: HuCD8 INFG Normalized EC50, anti-CD3 plus anti-CD28 as baseline; 3 μM Example 40 co-stimulation as 100% activation
Description: Frozen naïve human CD8 T cells were thawed in ATM-V media, incubated for 2 h in 37° C., and counted. The 384-well tissue culture plate was coated overnight at 4° C. with 20 μl anti-human CD3 at 0.05 μg/mL in PBS, which was removed off the plate before 40,000 cells per 40 microliters CD8 T cells with 0.1 μg/mL soluble anti-human CD28 were added to each well. The compounds were transferred using an Echo liquid handler to the cell plate immediately after the cells were plated. After 20 h incubation at 37° C. incubator, 3 microliters per well supernatants transferred into a new 384-well white assay plate for cytokine measurement.
Interferon-γ (IFN-γ) was quantitated using the AlphaLISA kit (Cat #AL217) as described by the manufacturer manual (Perkin Elmer). The counts from each well were converted to IFN-γ concentration […].

human DGKζ [8] = biological target: T2, human DGKζ; test: DGKζ LIPGLO assay (extruded liposome substrate); format: biochemical; settings: extruded liposome substrate; read-out: DGKζ LIPGLO IC50
Method in brief: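 Sf9-derived DGKζ was premixed 10 min with PC/DAG/PS liposomes (100 nm extruded) in MOPS pH 7.5 buffer containing NaCl, MgCl2, CaCl2 and DTT.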

[9] = test system: pre-activated CD4 T cells and Raji cells; test: Raji CD4 T Cell IL2 Assay; format: cell-based; settings: Homo sapiens, Raji
[10] = detergent/lipid micelle substrate, read-out: DGKα IC50
[11] = Homo sapiens, Jurkat, read-out: API-Luciferase Reporter IC50, Table 3
[12] = read-out: msCTL INF-γ IC50, murine CTL IFN-γ (table title reads INF-γ Whole Blood Normalized Agonist EC50)
[13] = read-out: API-Luciferase Reporter IC50, Table 3
[14] = CellTiter-Glo CD8 T cell proliferation, normalized, read-out: CD8 GLO normalized EC50
[15] = Homo sapiens, Jurkat, read-out: DGKAP1 Lucif Reporter IC50, Table 4
[16] = Mus musculus, MC-38, read-out: msCTL INF-γ IC50, murine CTL IFN-γ (table title reads INF-γ Whole Blood Normalized Agonist EC50)

T1 sequence (P23743 other isoform, or with tags, fused parts or gaps): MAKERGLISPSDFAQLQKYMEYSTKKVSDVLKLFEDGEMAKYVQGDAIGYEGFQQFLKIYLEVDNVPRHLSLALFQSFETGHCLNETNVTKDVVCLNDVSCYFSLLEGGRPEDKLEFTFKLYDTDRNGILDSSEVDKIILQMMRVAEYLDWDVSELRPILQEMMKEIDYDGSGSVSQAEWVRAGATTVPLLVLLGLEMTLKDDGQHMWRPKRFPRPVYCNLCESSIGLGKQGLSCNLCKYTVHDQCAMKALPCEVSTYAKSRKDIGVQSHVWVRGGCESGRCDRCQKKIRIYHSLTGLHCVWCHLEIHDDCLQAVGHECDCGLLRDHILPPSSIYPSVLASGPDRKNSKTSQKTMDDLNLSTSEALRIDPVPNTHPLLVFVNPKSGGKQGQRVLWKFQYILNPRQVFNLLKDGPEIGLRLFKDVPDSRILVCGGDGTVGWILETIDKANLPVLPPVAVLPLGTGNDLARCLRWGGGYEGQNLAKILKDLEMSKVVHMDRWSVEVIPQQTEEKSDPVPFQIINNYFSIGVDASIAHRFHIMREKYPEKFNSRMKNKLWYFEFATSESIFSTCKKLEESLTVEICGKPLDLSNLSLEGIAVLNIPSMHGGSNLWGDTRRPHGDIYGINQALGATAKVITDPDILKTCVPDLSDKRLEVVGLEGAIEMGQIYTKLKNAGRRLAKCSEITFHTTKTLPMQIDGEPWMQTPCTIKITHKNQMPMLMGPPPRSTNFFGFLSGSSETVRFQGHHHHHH
T2 sequence (Q13574 other isoform, or with tags, fused parts or gaps): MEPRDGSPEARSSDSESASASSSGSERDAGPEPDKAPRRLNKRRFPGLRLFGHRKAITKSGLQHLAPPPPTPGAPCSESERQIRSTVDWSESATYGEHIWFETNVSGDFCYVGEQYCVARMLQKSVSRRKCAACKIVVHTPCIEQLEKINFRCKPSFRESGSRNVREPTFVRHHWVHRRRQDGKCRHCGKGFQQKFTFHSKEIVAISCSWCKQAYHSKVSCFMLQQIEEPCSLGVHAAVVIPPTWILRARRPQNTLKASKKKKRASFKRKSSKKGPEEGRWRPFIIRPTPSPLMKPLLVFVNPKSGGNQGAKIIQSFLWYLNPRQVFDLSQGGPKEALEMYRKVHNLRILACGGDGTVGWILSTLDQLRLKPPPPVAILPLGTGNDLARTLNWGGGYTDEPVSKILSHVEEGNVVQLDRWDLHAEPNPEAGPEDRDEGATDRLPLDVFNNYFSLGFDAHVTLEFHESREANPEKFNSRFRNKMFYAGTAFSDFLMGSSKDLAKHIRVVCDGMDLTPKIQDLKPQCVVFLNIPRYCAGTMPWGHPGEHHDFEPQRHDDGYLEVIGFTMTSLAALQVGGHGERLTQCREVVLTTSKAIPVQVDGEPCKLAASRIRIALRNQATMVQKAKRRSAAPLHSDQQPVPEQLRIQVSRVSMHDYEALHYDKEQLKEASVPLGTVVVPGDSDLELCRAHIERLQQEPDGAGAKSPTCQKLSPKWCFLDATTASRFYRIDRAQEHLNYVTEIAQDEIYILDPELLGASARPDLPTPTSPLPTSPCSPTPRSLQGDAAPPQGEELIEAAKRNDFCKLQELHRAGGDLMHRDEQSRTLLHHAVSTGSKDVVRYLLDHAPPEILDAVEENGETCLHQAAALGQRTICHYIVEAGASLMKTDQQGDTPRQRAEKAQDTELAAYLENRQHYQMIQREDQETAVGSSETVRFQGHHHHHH

| Compound | IC50 (human DGKα [2]; [10]) | IC50 [3, 11] | IC50 (human DGKζ [4]) | IC50 [5, 16] | IC50 (human DGKα [6]) | IC50 (human DGKζ [8]) | other results |
| --- | --- | --- | --- | --- | --- | --- | --- |
| CCC(c1ccc(F)cc1)N1CCN(c2c([N+](=O)[O-])c(=O)n(C)c3ccc(C#N)nc23)CC1 (racemic) [Example 32, 8-{4-[1-(4-fluorophenyl)propyl]piperazin-1-yl}-5-methyl-7-nitro-6-oxo-5,6-dihydro-1,5-naphthyridine-2-carbonitrile] | 0.19 µM | 0.36 µM | 9.4 µM |  |  |  | EC50 (naïve human CD8 T cells [1]; read-out: CD8 GLO normalized EC50, CellTiter-Glo CD8 T cell proliferation, normalized): 0.18 µM |
| C#CCn1c(=O)c([N+](=O)[O-])c(N2CCN(C(c3ccc(F)cc3)c3ccccc3O)CC2)c2nc(C#N)ccc21 (single isomer, unassigned) [Example 134, 8-(4-((4-fluorophenyl)(2-hydroxyphenyl)methyl)piperazin-1-yl)-7-nitro-6-oxo-5-(prop-2-yn-1-yl)-5,6-dihydro-1,5-naphthyridine-2-carbonitrile] | 31 µM |  | 4.2 µM |  |  |  | IC50 [5, 12]: 1.14 µM; IC50 [3, 13]: 0.6 µM |
| COc1ccccc1C(c1ccc(F)cc1)N1CCN(c2c(C#N)c(=O)n(CC3CC3)c3ccc(Br)nc23)CC1 (racemic) [Example 158, 6-bromo-1-(cyclopropylmethyl)-4-(4-((4-fluorophenyl)(2-methoxyphenyl)methyl)piperazin-1-yl)-2-oxo-1,2-dihydro-1,5-naphthyridine-3-carbonitrile] | > 240 µM | 4.59 µM | > 240 µM |  |  |  | EC50 (naïve human CD8 T cells [1]; [14]): 0.92 µM; IC50 [3, 15]: 10 µM |
| Cn1c(=O)c([N+](=O)[O-])c(N2CCN([C@@H](c3ccccc3)c3ccc(Cl)cc3)CC2)c2nc(C#N)ccc21 [Example 399, 8-{4-[(S)-(4-chlorophenyl)(phenyl)methyl]piperazin-1-yl}-5-methyl-7-nitro-6-oxo-5,6-dihydro-1,5-naphthyridine-2-carbonitrile] |  |  |  | 0.41 µM | 6.4 µM | 0.16 µM | EC50 (naïve human CD8 T cells [7]): 0.02 µM |
| Cn1c(=O)c(C#N)c(N2CCN([C@@H](c3ccccc3)c3ccc(Cl)cc3)CC2)c2nc(Br)ccc21 [Example 428, 6-bromo-4-{4-[(S)-(4-chlorophenyl)(phenyl)methyl]piperazin-1-yl}-1-methyl-2-oxo-1,2-dihydro-1,5-naphthyridine-3-carbonitrile] |  |  |  | 0.59 µM | 10 µM | 5.2 µM | EC50 (naïve human CD8 T cells [7]): 0.03 µM |
| COc1cc(F)ccc1C(c1ccc(F)cc1)N1CCN(c2c(C#N)c(=O)n(C)c3ccc(C#N)nc23)CC1 (racemic) [Example 405, 8-{4-[(4-fluoro-2-methoxyphenyl)(4-fluorophenyl)methyl]piperazin-1-yl}-5-methy-6-oxo-5,6-dihydro-L5-naphthyridine-2,7-dicarbonitrile] |  |  |  |  | 0.56 µM | 0.86 µM | EC50 (naïve human CD8 T cells [1]; [14]): 0.02 µM |
| Cn1c(=O)c(C#N)c(N2CCN(Cc3ccc(O)cc3)CC2)c2nc(Cl)ccc21 [Example 362, 6-chloro-4-{4-[(4-hydroxyphenyl)methyl]piperazin-1-yl}-1-methyl-2-oxo-1,2-dihydro-1,5-naphthyridine-3-carbonitrile] | 0.069 µM | 8.37 µM | > 240 µM | 10 µM |  |  | IC50 [9]: > 100 µM |
| C#CCn1c(=O)c([N+](=O)[O-])c(N2CCN(C(c3ccc(F)cc3)c3ccccc3O)CC2)c2nc(C#N)ccc21 (single isomer, unassigned) [Example 133, 8-(4-((4-fluorophenyl)(2-hydroxyphenyl)methyl)piperazin-1-yl)-7-nitro-6-oxo-5-(prop-2-yn-1-yl)-5,6-dihydro-1,5-naphthyridine-2-carbonitrile] |  |  | 0.14 µM |  |  |  | IC50 [5, 12]: 0.06 µM; IC50 (human DGKα [2]; DGKα IC50, detergent/lipid micelle substrate): 3.3 µM; IC50 [3, 13]: 0.28 µM |
| Cc1cccc(CN2CCN(c3c(C#N)c(=O)n(C)c4ccc(Cl)nc34)CC2)c1 [Example 385, 6-chloro-1-methyl-1-{4-4[(3-methylphenyl)methyl]piperazin-1-yl}-2-oxo-1,2-dihydro-1,5-naphthyridine-3-carbonitrile] | 0.35 µM | 0.06 µM | 150 µM | 4.09 µM |  |  |  |
| COc1cc(F)ccc1C(c1ccc(F)cc1)N1CCN(c2cc(=O)n(C)c3ccc(C#N)nc23)CC1 (stereo not shown) [Example 392, 8-{4-[(4-fluoro-2-methoxyphenyl)(4-fluorophenyl)methyl]piperazin-1-yl}-5-methyl-6-oxo-5,6-dihydro-1,5-naphthyridine-2-carbonitrile] |  |  |  | 1.85 µM | > 240 µM | 2.3 µM | EC50 (naïve human CD8 T cells [7]): 0.23 µM |
| CC(c1ccc(F)cc1)N1CCN(c2c(C#N)c(=O)n(C)c3ccc(Cl)nc23)CC1 (stereo not shown) [Example 387A, 6-chloro-4-{4-[1-(4-fluorophenyl)ethyl]piperazin-1-yl}-1-methyl-2-oxo-1,2-dihydro-1,5-naphthyridine-3-carbonitrile] |  |  |  |  |  |  | EC50 (naïve human CD8 T cells [1]; [14]): 10 µM; IC50 [3, 15]: 10 µM |
